Tested on: immortalized human sebocytes derived from the SZ95 line
Assay: Lipid production by immortalized human sebocytes in culture (Nile Red fluorescence)
Type: cell-based
Conditions: treatment for two days; for VARIATION IN LIPIDS (compared to control): total lipids (neutral + non-neutral), Nile Red, 0.1% DMSO
Protocol: Hecogenin and diosgenin, provided by SIGMA, were tested on a model of immortalized human sebocytes in culture, derived from the SZ95 line described in C. C. Zouboulis, H. Seltmann, H. Neitzel & C. E. Orfanos, Establishment and Characterization of an Immortalized Human Sebaceous Gland Cell Line, J. Invest. Dermatol., 113, 1011-1020 (1999).
The test consisted in measuring the amount of lipids produced by the sebocytes of the line (at confluency), in the presence or absence of active agents, diluted in DMSO such that the final amount of DMSO in the culture medium is 0.1%. After treatment for two days, the adherent cells are treated with Nile Red (1 μg/ml). The lipid content is then quantified by measuring the fluorescence of the dye (two excitation/emission couples: 485-540 nm for the neutral lipids and 540-620 nm for the non-neutral lipids). The results are given for the total lipids (combination of the two measurements).
The experiment was carried out in triplicate (assay products and control) in a 96-well plate and repeated three times.

SMILES: C[C@@H]1CC[C@@]2(OC1)O[C@H]1C[C@H]3[C@@H]4CC[C@@]5(C)C[C@@H](O)CC[C@]5(C)[C@H]4CC(=O)[C@]3(C)[C@H]1[C@@H]2C [Hecogenin]
- VARIATION IN LIPIDS (compared to control) (0.1 μM): +5%

SMILES: C[C@]12CC[C@H](O)CC1=CC[C@@H]1[C@@H]2CC[C@]2(C)C(=O)CC[C@@H]12 [DHEA]
- activity on lipid content (lipogenesis) (0.1 μM, same test, total lipids): inactive
- increase in the lipid content of the sebum (10 μM, same test, total lipids): 13%

SMILES: C[C@@H]1CC[C@@]2(OC1)O[C@H]1C[C@H]3[C@@H]4CC=C5C[C@@H](O)CC[C@]5(C)[C@H]4CC[C@]3(C)[C@H]1[C@@H]2C [Diosgenin]
- VARIATION IN LIPIDS (compared to control) (0.1 μM): +4%
